Earlier results in US20240043928A1, “BIOMARKERS FOR MYELODYSPLASTIC SYNDROME (MDS) AND METHODS OF USING THE SAME” (Eisai R&D Management Co., Ltd., priority 2020, published 2024).

Conditions: subjects of a prior phase 1 trial; cited from earlier work

With `CC[C@H](O)[C@@H](C)[C@H]1O[C@@H]1C[C@@](C)(O)/C=C/C=C(\C)[C@H]1OC(=O)C[C@H](O)CC[C@@](C)(O)[C@@H](OC(=O)N2CCN(C3CCCCCC3)CC2)/C=C/[C@@H]1C` [Compound E7107] as the molecule, how does the visual loss read?
Its visual loss is “visual loss was observed”.
